{"source": "patent US9913861B2", "about": "(priority 2013, dated 2018)", "key": {"[1]": {"test_system": "Human herpesvirus type 1 (HSV1)", "assay_type": "cell-based"}, "[2]": {"test_system": "Human coxsackievirus type 9 (CA9)", "assay_type": "cell-based"}, "[3]": {"settings": "in vivo; cited from earlier work"}, "[4]": {"test_system": "Human respiratory syncytial virus, Long strain (RSV)", "assay_type": "cell-based"}, "[5]": {"test_system": "Human rhinovirus type 14 (HRV14, major group)", "assay_type": "cell-based"}, "[6]": {"test_system": "BGM, HEp-2 and HeLa cells"}, "[7]": {"test_system": "herpesviruses and influenza viruses", "settings": "cited from earlier work"}}, "note": "Counter-ions that a name gives are not always drawn.", "data": [{"compound": "Nc1nc2c(ncn2COCCO)c(=O)[nH]1", "note": "[aciclovir, Aciclovir]", "values": [{"measurement": "reduction in infectivity", "setting": "[1]", "result": "50-60%"}]}, {"compound": "aconitine", "values": [{"measurement": "percentage plaque inhibition", "setting": "[2]", "result": "8.40/10.69%"}, {"measurement": "lethal dose", "setting": "[3]", "result": "approximately 5 mg"}, {"measurement": "percentage plaque inhibition", "setting": "[4]", "result": "9.01/16.56%"}, {"measurement": "percentage plaque inhibition", "setting": "[5]", "result": "−1.14/2.84%"}, {"measurement": "non-cell-toxic concentration (start of dilution series)", "setting": "[6]", "result": 50, "unit": "µg/mL"}, {"measurement": "percentage plaque inhibition", "setting": "[1]", "result": "3.17/11.22%"}, {"measurement": "plaque inhibition of the individual substances", "setting": "[1]", "result": "approximately 8%"}]}, {"compound": "CN1[C@@H]2CC[C@H]1C[C@@H](OC(=O)C(CO)c1ccccc1)C2", "note": "(stereo partly shown) [atropine]", "values": [{"measurement": "concentration at which the maximum antiviral effect is achieved", "setting": "[7]", "result": 2, "unit": "mM"}]}, {"compound": "NC(=O)c1ncn([C@@H]2O[C@H](CO)[C@@H](O)[C@H]2O)n1", "note": "[ribavirin, Ribavirin]", "values": [{"measurement": "reduction in infectivity", "setting": "[4]", "result": "50-60%"}]}, {"compound": "CN1[C@@H]2CC[C@H]1CC(OC(=O)C(CO)c1ccccc1)C2.CN1[C@@H]2CC[C@H]1CC(OC(=O)C(CO)c1ccccc1)C2.O=S(=O)(O)O", "note": "(stereo partly shown) [Atropine sulphate, atropine sulphate]", "values": [{"measurement": "percentage plaque inhibition", "setting": "[2]", "result": "7.63/12.85%"}, {"measurement": "percentage plaque inhibition", "setting": "[4]", "result": "7.74/12.36%"}, {"measurement": "percentage plaque inhibition", "setting": "[5]", "result": "11.30/14.12%"}, {"measurement": "percentage plaque inhibition", "setting": "[1]", "result": "19.52/41.90%"}, {"measurement": "plaque inhibition of the individual substances", "setting": "[1]", "result": "approximately 35%"}]}, {"compound": "Cc1cc(C(C)(C)C)c(O)c(C)c1CC1=NCCN1", "note": "[OMZ, Oxymetazoline hydrochloride]", "values": [{"measurement": "reduction in infectivity", "setting": "[5]", "result": "50-60%"}]}]}
